This is an account of results in patent publication US20240376099A1, “COMPOUNDS AND COMPOSITIONS AS INHIBITORS OF ENDOSOMAL TOLL-LIKE RECEPTORS” (Novartis AG, priority 2016, published 2024).

The target of the experiment is T1, TLR9 (Homo sapiens, UniProt Q9NR96).
T1 construct: Fresh blood was collected from normal human donors; endogenous in cells; host or cells: human PBMCs from fresh donor blood
T1 sequence (Q9NR96 26-1032): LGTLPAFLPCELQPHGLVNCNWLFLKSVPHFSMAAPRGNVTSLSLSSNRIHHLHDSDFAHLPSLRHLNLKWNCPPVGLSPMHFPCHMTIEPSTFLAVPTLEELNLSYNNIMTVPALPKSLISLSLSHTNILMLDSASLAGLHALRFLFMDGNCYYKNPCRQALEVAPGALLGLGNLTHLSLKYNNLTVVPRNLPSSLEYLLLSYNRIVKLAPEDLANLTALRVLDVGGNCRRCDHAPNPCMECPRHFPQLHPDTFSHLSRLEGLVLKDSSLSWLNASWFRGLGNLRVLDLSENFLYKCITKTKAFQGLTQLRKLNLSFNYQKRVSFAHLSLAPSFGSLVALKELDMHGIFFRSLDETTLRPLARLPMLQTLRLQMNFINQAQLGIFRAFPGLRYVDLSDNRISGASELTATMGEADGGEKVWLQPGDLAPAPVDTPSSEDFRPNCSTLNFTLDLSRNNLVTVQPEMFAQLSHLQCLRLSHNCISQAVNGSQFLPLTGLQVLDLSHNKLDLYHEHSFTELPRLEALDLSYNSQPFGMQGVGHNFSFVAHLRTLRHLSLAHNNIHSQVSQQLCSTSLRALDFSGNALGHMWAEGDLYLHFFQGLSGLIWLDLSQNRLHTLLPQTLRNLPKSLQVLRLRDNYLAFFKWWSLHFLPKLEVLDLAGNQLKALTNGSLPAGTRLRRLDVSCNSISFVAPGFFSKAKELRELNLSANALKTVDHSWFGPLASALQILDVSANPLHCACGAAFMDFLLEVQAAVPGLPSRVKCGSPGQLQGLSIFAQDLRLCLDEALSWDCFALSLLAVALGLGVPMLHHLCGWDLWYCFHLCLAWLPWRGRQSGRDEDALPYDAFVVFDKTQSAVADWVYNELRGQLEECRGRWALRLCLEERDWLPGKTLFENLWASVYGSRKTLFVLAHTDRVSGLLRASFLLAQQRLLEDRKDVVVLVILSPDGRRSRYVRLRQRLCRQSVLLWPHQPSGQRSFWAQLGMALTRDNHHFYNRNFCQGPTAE
Briefly: huPBMC TLR9 Antagonist IFNα Assay. The experiment is classed as cell-based. The following applies: human PBMCs stimulated with ODN2216 0.3 μM, 14-16 hrs; IFNα2b AlphaLISA read-out. An outline of the steps: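 Human PBMCs from fresh donor blood (150,000 cells/well) stimulated 14–16 h at 37 °C with DOTAP-complexed ssRNA40 (final 1 μg/ml for TLR8, 10 μg/mL for TLR7) or ODN2216 (final 0.3 μM, TLR9), 0.25% DMSO, ten-point 1/3 compound dilutions. Supernatant IL-6 read by HTRF (TLR8); IFNα by IFNα2b AlphaLISA (TLR7/TLR9).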
In general terms: Bead proximity is the source of the signal in Alpha formats.

As usually defined, the IC50 is the midpoint of a concentration-inhibition curve. Regarding `Cc1nc(N2CCc3c(c(C)nn3CC34CCC(N5CCOCC5)(CC3)CC4)C2)c2c(n1)c(C)nn2C` [compound 25, 4-(4-((3-methyl-5-(1,3,5-trimethyl-1H-pyrazolo[4,3-d]pyrimidin-7-yl)-4,5,6,7-tetrahydro-1H-pyrazolo[4,3-c]pyridin-1-yl)methyl)bicyclo[2.2.2]octan-1-yl)morpholine], the IC50 was over 8080 nM.
Take `Cc1nc(N2CCc3c(c(C)nn3CC34CCC(NC5CCC5)(CC3)CC4)C2)c2c(n1)c(C)nn2C` [compound 27, N-cyclobutyl-4-((3-methyl-5-(1,3,5-trimethyl-1H-pyrazolo[4,3-d]pyrimidin-7-yl)-4,5,6,7-tetrahydro-1H-pyrazolo[4,3-c]pyridin-1-yl)methyl)bicyclo[2.2.2]octan-1-amine]: the IC50 was over 10000 nM.
Under `Cc1nc(N2CCc3c(c(C)nn3CC34CCC(N(C5CCC5)C5CCC5)(CC3)CC4)C2)c2c(n1)c(C)nn2C` [compound 28, N,N-dicyclobutyl-4-((3-methyl-5-(1,3,5-trimethyl-1H-pyrazolo[4,3-d]pyrimidin-7-yl)-4,5,6,7-tetrahydro-1H-pyrazolo[4,3-c]pyridin-1-yl)methyl)bicyclo[2.2.2]octan-1-amine] stands over 10000 nM; under `Cc1nc(N2CCc3c(c(C)nn3CC34CCC(N5CCCCC5)(CC3)CC4)C2)c2cn[nH]c2n1` [compound 29, 6-methyl-4-(3-methyl-1-((4-(piperidin-1-yl)bicyclo[2.2.2]octan-1-yl)methyl)-6,7-dihydro-1H-pyrazolo[4,3-c]pyridin-5(4H)-yl)-1H-pyrazolo[3,4-d]pyrimidine], over 10000 nM.
The figure for `Cc1nc(N2CCc3c(c(C)nn3CC34CCC(N5CCCC5)(CC3)CC4)C2)c2cn[nH]c2n1` [compound 30, 6-methyl-4-(3-methyl-1-((4-(pyrrolidin-1-yl)bicyclo[2.2.2]octan-1-yl)methyl)-6,7-dihydro-1H-pyrazolo[4,3-c]pyridin-5(4H)-yl)-1H-pyrazolo[3,4-d]pyrimidine] is over 10000 nM; for `Cc1nc(N2CCc3c(c(C)nn3CC34CCC(NCC5(CO)COC5)(CC3)CC4)C2)c2c(n1)c(C)nn2C` [compound 31, (3-(((4-((3-methyl-5-(1,3,5-trimethyl-1H-pyrazolo[4,3-d]pyrimidin-7-yl)-4,5,6,7-tetrahydro-1H-pyrazolo[4,3-c]pyridin-1-yl)methyl)bicyclo[2.2.2]octan-1-yl)amino)methyl)oxetan-3-yl)methanol] it is 2340 nM.
Regarding `Cc1nc(N2CCc3c(c(C)nn3CC34CCC(NC(=O)[C@@H]5COCCN5)(CC3)CC4)C2)c2c(n1)c(C)nn2C` [compound 33, (S)-N-(4-((3-methyl-5-(1,3,5-trimethyl-1H-pyrazolo[4,3-d]pyrimidin-7-yl)-4,5,6,7-tetrahydro-1H-pyrazolo[4,3-c]pyridin-1-yl)methyl)bicyclo[2.2.2]octan-1-yl)morpholine-3-carboxamide], the IC50 was over 10000 nM.
`Cc1nc(N2CCc3c(c(C)nn3CC34CCC(NC(=O)[C@@H]5CNCCO5)(CC3)CC4)C2)c2c(n1)c(C)nn2C` [compound 34, (S)-N-(4-((3-methyl-5-(1,3,5-trimethyl-1H-pyrazolo[4,3-d]pyrimidin-7-yl)-4,5,6,7-tetrahydro-1H-pyrazolo[4,3-c]pyridin-1-yl)methyl)bicyclo[2.2.2]octan-1-yl)morpholine-2-carboxamide]: the IC50 was found to be 5700 nM.
The figure for `Cc1nc(N2CCc3c(c(C)nn3CC34CCC(NC(=O)[C@H]5CNCCO5)(CC3)CC4)C2)c2c(n1)c(C)nn2C` [compound 36, (R)-N-(4-((3-methyl-5-(1,3,5-trimethyl-1H-pyrazolo[4,3-d]pyrimidin-7-yl)-4,5,6,7-tetrahydro-1H-pyrazolo[4,3-c]pyridin-1-yl)methyl)bicyclo[2.2.2]octan-1-yl)morpholine-2-carboxamide] is 4970 nM; for `Cc1nc(N2CCc3c(c(C)nn3CC34CCC(N5CCOCC5)(CC3)CC4)C2)c2c(C)noc2n1` [compound 37, 3,6-dimethyl-4-(3-methyl-1-((4-morpholinobicyclo[2.2.2]octan-1-yl)methyl)-6,7-dihydro-1H-pyrazolo[4,3-c]pyridin-5(4H)-yl)isoxazolo[5,4-d]pyrimidine] it is over 10000 nM.
The figure for `Cc1nc(N2CCc3c(c(C)nn3CC34CCC(N5CCCCC5)(CC3)CC4)C2)c2c(n1)c(C)nn2C` [compound 38, 1,3,5-trimethyl-7-(3-methyl-1-((4-(piperidin-1-yl)bicyclo[2.2.2]octan-1-yl)methyl)-6,7-dihydro-1H-pyrazolo[4,3-c]pyridin-5(4H)-yl)-1H-pyrazolo[4,3-d]pyrimidine] is over 10000 nM.
The figure for `Cc1nc(N2CCc3c(c(C)nn3CC34CCC(N5CCCCC5)(CC3)CC4)C2)c2cnn(C)c2n1` [compound 39, 1,6-dimethyl-4-(3-methyl-1-((4-(piperidin-1-yl)bicyclo[2.2.2]octan-1-yl)methyl)-6,7-dihydro-1H-pyrazolo[4,3-c]pyridin-5(4H)-yl)-1H-pyrazolo[3,4-c]pyrimidine] is over 10000 nM.
Consider `[2H]C([2H])([2H])N(C([2H])([2H])[2H])C12CCC(Cn3nc(C)c4c3CCN(c3nc(C)nc5c(C)nn(C)c35)C4)(CC1)CC2` [compound 40, 4-((3-methyl-5-(1,3,5-trimethyl-1H-pyrazolo[4,3-d]pyrimidin-7-yl)-4,5,6,7-tetrahydro-1H-pyrazolo[4,3-c]pyridin-1-yl)methyl)-N,N-bis(trideuteromethyl)bicyclo[2.2.2]octan-1-amine], for which the IC50 worked out at 2520 nM.
The figure for `Cc1nn(CC23CCC(N)(CC2)CC3)c2c1CN(c1ccnc3[nH]ncc13)CC2` [compound 41, 4-((3-methyl-5-(1H-pyrazolo[3,4-b]pyridin-4-yl)-4,5,6,7-tetrahydro-1H-pyrazolo[4,3-c]pyridin-1-yl)methyl)bicyclo[2.2.2]octan-1-amine] is 817 nM; for `Cc1c2c(nn1CC13CCC(N)(CC1)CC3)CCN(c1ccnc3[nH]ncc13)C2` [compound 42, 4-((3-methyl-5-(1H-pyrazolo[3,4-b]pyridin-4-yl)-4,5,6,7-tetrahydro-2H-pyrazolo[4,3-c]pyridin-2-yl)methyl)bicyclo[2.2.2]octan-1-amine] it is 472 nM.
Under `Cc1cc(N2CCc3c(c(C)nn3CC34CCC(N)(CC3)C4)C2)c2cnn(C)c2n1` [compound 44, 4-((5-(1,6-dimethyl-1H-pyrazolo[3,4-b]pyridin-4-yl)-3-methyl-4,5,6,7-tetrahydro-1H-pyrazolo[4,3-c]pyridin-1-yl)methyl)bicyclo[2.2.1]heptan-1-amine] stands 1210 nM.
Turning to `Cc1cc(N2CCc3c(c(C(F)(F)F)nn3CC34CCC(N)(CC3)CC4)C2)c2cnn(C)c2n1` [compound 45, 4-((5-(1,6-dimethyl-1H-pyrazolo[3,4-b]pyridin-4-yl)-3-(trifluoromethyl)-4,5,6,7-tetrahydro-1H-pyrazolo[4,3-c]pyridin-1-yl)methyl)bicyclo[2.2.2]octan-1-amine], the IC50 was determined as 2060 nM.
With `Cc1cc(N2CCc3c(c(C)nn3CC34CCC(NCC(=O)N5CCCCC5)(CC3)CC4)C2)c2cnn(C)c2n1` [compound 99, 2-((4-((5-(1,6-dimethyl-1H-pyrazolo[3,4-b]pyridin-4-yl)-3-methyl-4,5,6,7-tetrahydro-1H-pyrazolo[4,3-c]pyridin-1-yl)methyl)bicyclo[2.2.2]octan-1-yl)amino)-1-(piperidin-1-yl)ethanone], the IC50 came out at 2840 nM.
